# Assays:
# Experiment in all cases: ≥ marks a high value that may be exact or a test limit, other limits are often not marked, values filed in µg/mL are converted to µM
# [1] = tested on: Burkholderia cepacia ATCC 25416
# Escherichia coli UB1005 = tested on: Escherichia coli UB1005
# [2] = tested on: Pseudomonas aeruginosa H374
# [3] = tested on: Pseudomonas aeruginosa H547
# [4] = tested on: Pseudomonas aeruginosa H744
# [5] = tested on: Pseudomonas aeruginosa K799
# [6] = tested on: Pseudomonas aeruginosa Z61
# [7] = tested on: Salmonella enterica subsp. enterica serovar Typhimurium ATCC 14028s
# Bacillus subtilis 168 HT = tested on: Bacillus subtilis 168 HT
# [8] = tested on: Escherichia coli K12 MG1655
# [9] = tested on: Staphylococcus aureus ST88
# [10] = tested on: Staphylococcus haemolyticus 527
# [11] = tested on: Candida albicans NCTC 1467
# [12] = tested on: Escherichia coli NCTC 10418
# [13] = tested on: Klebsiella pneumoniae ATCC 43816
# [14] = tested on: Pseudomonas aeruginosa ATCC 27853
# [15] = tested on: Staphylococcus aureus NCTC 10788
# [16] = tested on: Staphylococcus aureus NCTC 12493
# [17] = tested on: Aspergillus oryzae NBRC 100959
# [18] = tested on: Candida viswanathii NBRC 10321
# [19] = tested on: Escherichia coli NBRC 3972
# [20] = tested on: Micrococcus luteus NBRC 3333
# [21] = tested on: Staphylococcus epidermidis NBRC 12993
# Bacillus subtilis 168 = tested on: Bacillus subtilis 168
# [22] = tested on: Clavibacter michiganensis subsp. michiganensis
# Escherichia coli BL21 = tested on: Escherichia coli BL21
# [23] = tested on: Pseudomonas syringae pv. tomato DC3000
# Ralstonia solanacearum = tested on: Ralstonia solanacearum
# [24] = tested on: Xanthomonas campestris pv. holcicola
# [25] = tested on: Xanthomonas oryzae pv. oryzae
# [26] = tested on: Escherichia coli NBRC 14237
# [27] = tested on: Saccharomyces cerevisiae NBRC 10217
# [28] = tested on: Staphylococcus aureus NBRC 12732
# [29] = tested on: Edwardsiella piscicida FSW 910410
# [30] = tested on: Streptococcus iniae FP5228
# [31] = tested on: Streptococcus parauberis KSP 28
# [32] = tested on: Streptococcus parauberis PH0710
# [33] = tested on: Vibrio alginolyticus KCCM 2928
# [34] = tested on: Vibrio anguillarum TR14001NF
# [35] = tested on: Vibrio campbellii KCCM 40684
# [36] = tested on: Vibrio harveyi ATCC 14126
# [37] = tested on: Vibrio ordalii KCCM 41669
compound,measurement,setting,value
CC[C@H](C)[C@H](NC(=O)CNC(=O)[C@@H](NC(=O)[C@H](CCCCN)NC(=O)[C@H](CCCCN)NC(=O)[C@@H](NC(=O)[C@H](Cc1ccccc1)NC(=O)[C@H](CCCCN)NC(=O)[C@H](CCCCN)NC(=O)[C@H](Cc1c[nH]c2ccccc12)NC(=O)[C@H](CCCCN)NC(=O)[C@@H](N)CCCCN)[C@@H](C)CC)[C@@H](C)CC)C(=O)NCC(=O)N[C@@H](C)C(=O)N[C@H](C(=O)N[C@@H](CC(C)C)C(=O)N[C@H](C(=O)N[C@H](C(=O)N1CCC[C@H]1C(=O)NCC(=O)N[C@@H](C)C(=O)N[C@@H](CCCCN)C(=O)N[C@@H](CCCCN)C(=O)O)[C@@H](C)O)[C@@H](C)O)C(C)C [KKWKKFIKKIGIGAVLTTPGAKK],MIC,[1],25.2 µM
same,MIC,Escherichia coli UB1005,1.57 µM
same,MIC,[2],3.15 µM
same,MIC,[3],6.3 µM
same,MIC,[4],1.57 µM
same,MIC,[5],25.2 µM
same,MIC,[6],12.6 µM
same,MIC,[7],1.57 µM
CC[C@H](C)[C@H](N)C(=O)NCC(=O)N[C@@H](CCCN=C(N)N)C(=O)N[C@@H](Cc1cnc[nH]1)C(=O)N[C@@H](Cc1ccccc1)C(=O)N[C@@H](CCCCN)C(=O)N[C@@H](CCCN=C(N)N)C(=O)N[C@@H](CCCN=C(N)N)C(=O)N[C@@H](CC(N)=O)C(=O)N[C@@H](CO)C(=O)N[C@H](C(=O)N[C@@H](Cc1c[nH]c2ccccc12)C(=O)NCC(=O)N[C@H](C(=O)N[C@@H](CS)C(=O)N[C@@H](Cc1c[nH]c2ccccc12)C(=O)N[C@@H](Cc1ccccc1)C(=O)O)[C@@H](C)CC)[C@@H](C)CC [IGRHFKRRNSIWGICWF],MIC,Bacillus subtilis 168 HT,14.8 µM
same,MIC,[8],14.8 µM
same,MIC,[9],≥ 100 µM
same,MIC,[10],14.8 µM
CC[C@H](C)[C@@H]1NC(=O)[C@H](CC(C)C)NC(=O)[C@@H](NC(=O)[C@H](Cc2ccccc2)NC(=O)[C@H](CC(C)C)NC(=O)[C@H](CCCCN)NC(=O)[C@H](Cc2ccc(O)cc2)NC(=O)[C@H](CC(C)C)NC(=O)[C@@H](NC(=O)[C@H](CCCCN)NC(=O)[C@@H](NC(=O)[C@@H](NC(=O)[C@H](C)NC(=O)CNC(=O)[C@H](CC(C)C)NC(=O)[C@H](C)NC(=O)[C@@H](N)Cc2ccccc2)C(C)C)[C@@H](C)O)C(C)C)CSSC[C@@H](C(=O)O)NC(=O)[C@H](CCCCN)NC(=O)[C@H](CCCN=C(N)N)NC(=O)[C@H]([C@@H](C)O)NC1=O [FALGAVTKVLYKLFCLITRKC],MIC,[11],≥ 64 µM
same,MIC,[12],≥ 128 µM
same,MIC,[13],≥ 128 µM
same,MIC,[14],> 128 µM
same,MIC,[15],4 µM
same,MIC,[16],8 µM
CC[C@H](C)[C@H](NC(=O)[C@H](CC(C)C)NC(=O)[C@@H](N)CCCN=C(N)N)C(=O)N[C@@H](CCCCN)C(=O)N[C@@H](CCCN=C(N)N)C(=O)N[C@@H](Cc1ccc(O)cc1)C(=O)N[C@@H](CC(C)C)C(=O)N[C@@H](CCCN=C(N)N)C(=O)N[C@@H](CCCN=C(N)N)C(=O)N[C@@H](CCSC)C(=O)N[C@@H](Cc1c[nH]c2ccccc12)C(=O)O [RLIKRYLRRMW],MIC,[17],≥ 126 µM
same,MIC,[18],≥ 62.9 µM
same,MIC,[19],≥ 503 µM
same,MIC,[20],≥ 62.9 µM
same,MIC,[21],≥ 126 µM
CC[C@H](C)[C@H](NC(=O)CNC(=O)[C@H](C)NC(=O)CN)C(=O)NCC(=O)N1CCC[C@H]1C(=O)NCC(=O)N[C@@H](Cc1cnc[nH]1)C(=O)N[C@@H](CCCN=C(N)N)C(=O)N[C@@H](CCCN=C(N)N)C(=O)N[C@H](C(=O)N[C@@H](Cc1c[nH]c2ccccc12)C(=O)N[C@@H](CCCN=C(N)N)C(=O)N[C@@H](CCCN=C(N)N)C(=O)N[C@@H](Cc1c[nH]c2ccccc12)C(=O)N1CCC[C@H]1C(=O)N[C@@H](CCCN=C(N)N)C(=O)N[C@@H](CCCN=C(N)N)C(=O)N[C@@H](CCCN=C(N)N)C(=O)N[C@@H](Cc1c[nH]c2ccccc12)C(=O)N[C@@H](CCCN=C(N)N)C(=O)O)[C@@H](C)O [GAGIGPGHRRTWRRWPRRRWR],MIC,Bacillus subtilis 168,16 µM
same,MIC,[22],16 µM
same,MIC,Escherichia coli BL21,16 µM
same,MIC,[23],4 µM
same,MIC,Ralstonia solanacearum,8 µM
same,MIC,[24],16 µM
same,MIC,[25],4 µM
CC[C@H](C)[C@H](NC(=O)[C@@H](N)[C@@H](C)O)C(=O)N[C@@H](CC(N)=O)C(=O)N[C@@H](CCCCN)C(=O)N[C@@H](CCCCN)C(=O)N[C@@H](Cc1ccccc1)C(=O)N[C@@H](CCCN=C(N)N)C(=O)N[C@@H](Cc1c[nH]c2ccccc12)C(=O)N[C@@H](Cc1cnc[nH]1)C(=O)NCC(=O)N[C@@H](CCCCN)C(=O)N[C@@H](CCCN=C(N)N)C(=O)N[C@@H](CCCCN)C(=O)N[C@@H](Cc1c[nH]c2ccccc12)C(=O)N[C@@H](Cc1c[nH]c2ccccc12)C(=O)N[C@@H](CC(C)C)C(=O)N[C@@H](CCCN=C(N)N)C(=O)N[C@@H](Cc1ccccc1)C(=O)N[C@H](C(=O)N[C@@H](CCCCN)C(=O)N[C@@H](CCC(N)=O)C(=O)O)C(C)C [TINKKFRWHGKRKWWLRFVKQ],MIC,[26],3.12 µM
same,MIC,[27],6.25 µM
same,MIC,[28],3.12 µM
CC[C@H](C)[C@H](NC(=O)[C@H](CCCCN)NC(=O)[C@@H](NC(=O)[C@@H](N)Cc1ccccc1)[C@@H](C)O)C(=O)N[C@@H](Cc1ccc(O)cc1)C(=O)NCC(=O)N[C@@H](CO)C(=O)N[C@@H](CCCN=C(N)N)C(=O)N[C@@H](CC(C)C)C(=O)N[C@@H](CCC(N)=O)C(=O)N[C@@H](CCCCN)C(=O)N[C@H](C(=O)N[C@@H](CC(C)C)C(=O)NCC(=O)N[C@@H](CC(N)=O)C(=O)O)C(C)C [FTKIYGSRLQKVLGN],MIC,[29],≥ 290 µM
same,MIC,[30],≥ 51.3 µM
same,MIC,[31],≥ 290 µM
same,MIC,[32],≥ 103 µM
same,MIC,[33],≥ 205 µM
same,MIC,[34],≥ 290 µM
same,MIC,[35],≥ 51.3 µM
same,MIC,[36],≥ 51.3 µM
same,MIC,[37],≥ 205 µM
